Reference: patent US4350700A, “Pharmaceutical composition containing 1,3,5-substituted biuret compound” (Taiho Pharmaceutical Company, Limited, priority 1979, dated 1982)
Read-outs that look alike come from different tables or passages of the source.

Legend:
[1] = system: acetic acid-induced stretching symptom of mouse; assay: Analgesic activity, acetic acid-induced stretching method; format: in vivo, mice (ddy strain, male); conditions: read-out: Analgesic activity, acetic acid-induced stretching method, inhibitory ratio
Method: (§1) Next, several tests for determining the pharmacological properties, in that acute toxicity, anti-pyretic activity, analgesic activity and anti-inflammatory activity of the present 1,3,5-substituted biuret compounds of the formula (1) were conducted and the test results are shown in Table (2). In the tests, each compounds to be tested was used as a suspension in 0.25% carboxymethylcellulose solution. Methods for testing are explained as follows:
(1) Acetic acid-induced stretching method
According to the method reported by Koster et.al., [Fed. Proc., Vol. 18, pp. 412 (1959)], the ddy strain of male mice (body weight, 20-25 g) were used as test animals. The mice were fasted overnight, 100 mg/kg body weight of the test compound was administered orally, then 1 hour after the administration, 0.2 ml of 0.7% acetic acid solution was injected intraperitoneally. The acetic acid-induced stretching symptom of mouse was observed. Analgesic activity of the test compound was calculated as the inhibitory ratio (%). In Table 2, the values in parentheses show the data obtained from the test by using the dosage other than 100 mg/kg body weight. Further, the values indicated with Δ marks show 50% effective dose, ED50 (mg/kg body weight).

ddy strain of male mice = assay: Acute toxicity (oral, general symptom and death observed for 7 days); format: in vivo; conditions: 7 days
Method: as §1
The ddy strain of male mice (body weight, 20-25 g) were used as test animals. The mice were fasted overnight and the compound to be tested was administered orally. […] The lethal dose (mg/kg, body weight) of the test compound was determined in connection with the death number of mice/the number of mice tested. In Table 2, the values indicated with Δ marks are 50% lethal dose, LD50 (mg/kg, body weight).

[2] = system: pain reaction of the mouse caused by a clamp; assay: Analgesic activity, Haffner method; format: in vivo, mice (ddy strain, male); conditions: mice
Method: as §1
According to the modified method reported by Fujimura et al., [Bulletin of the Institute for Chemical Research, Kyoto University, No. 25, pp. 36 (1951)], the ddy strain of male mice (body weight, 20-25 g) were used as test animals. The mice were fasted overnight, 100 mg/kg body weight of the test compound was administered orally, then 45 minutes after the administration, the threshhold amount (1.5-2.5 mg/kg body weight) of morphine hydrochloride was injected subcutaneously. Then 1-hour pain reaction of the mouse caused by a clamp was observed. Analgesic activity of the test compound was calculated as the inhibitory ratio (%). In Table 2, the values in parentheses show the data obtained from the test by using the dosage other than 100 mg/kg body weight. Further, the values indicated with Δ marks show 50% effective dose, ED50 (mg/kg body weight).

[3] = system: carrageenin-induced inflammation of the hindpaw of the rat; assay: Anti-inflammatory activity, acute carrageenin-induced inflammatory test; format: in vivo, rats (Wistar strain, male); conditions: Rattus norvegicus, read-out: Anti-inflammatory activity, inflammation inhibitory ratio
Method: as §1
4. Anti-inflammatory Activity
According to the method of acute carrageenin-induced inflammatory test [Folia Pharmacologia Japonica, Vol. 56, pp. 575 (1960)], the Wistar strain of male rats (body weight, 150-180 g) were used as test animals. The rats were fasted overnight, 100 mg/kg body weight of the test compound was administered orally, then 1 hour after the administration, 0.1 ml of 1% carrageenin solution, as the inflammation inducing agent, was injected subcutaneously to the hindpaw of the rat and the volume of the hindpaw was measured at time sequences. Anti-inflammatory activity of the test compound was calculated as inflammation inhibitory ratio (%) at 3 hours after the injection of inflammation inducing agent.

[4] = 100 mg/kg oral, rats, 3 hours after carrageenin
[5] = 200 mg/kg oral, rats, 3 hours after carrageenin

Row | SMILES | inhibition in vivo at 100 mg/kg ([1]; po) [%] | Acute toxicity, death number of mice/number of mice tested (ddy strain of male mice; 2000 mg/kg oral) | Analgesic activity, Haffner method, inhibitory ratio ([2]; 100 mg/kg oral) [%] | Acute toxicity, death number of mice/number of mice tested (ddy strain of male mice; 1000 mg/kg oral) | Analgesic activity, Haffner method, inhibitory ratio ([2]; 200 mg/kg oral) [%] | other results
1 | CN(C(N)=O)C(=O)Nc1ccccc1 [Compound No. 1] | 37.5 | 2/4 |  |  |  | 
2 | CNC(=O)NC(=O)Nc1ccccc1 [Compound No. 2] | 75 |  | 50 | 4/4 |  | inhibition in vivo at 100 mg/kg ([3]; po, 3 h): 28%; Acute toxicity, death number of mice/number of mice tested (ddy strain of male mice; 500 mg/kg oral): 0/4
3 | CCN(C(=O)NC)C(=O)Nc1ccccc1 [Compound No. 21, 1-Methyl-3-ethyl-5-phenylbiuret] | 50 | 3/4 | 37.5 | 1/4 |  | inhibition in vivo at 100 mg/kg [3, 4]: 56%
4 | CNC(=O)N(C(=O)Nc1ccccc1)c1ccccc1 [Compound No. 22, 1-methyl-3,5-diphenylbiuret] | 37.5 | 0/4 |  |  | 50 | inhibition in vivo at 100 mg/kg [3, 4]: 35%
5 | CCNC(=O)NC(=O)Nc1ccccc1 [Compound No. 23, 1-ethyl-5-phenylbiuret] | 62.5 | 0/4 |  |  | 60 | inhibition in vivo at 100 mg/kg [3, 4]: 49%
6 | CN(C(=O)NCC(C)(C)O)C(=O)Nc1ccccc1 [Compound No. 57, 1-(2-Methyl-2-hydroxypropyl)-3-methyl-5-phenylbiuret] |  | 2/4 | 50 | 0/4 |  | inhibition in vivo at 100 mg/kg ([1]; 100 mg/kg oral, mice): 100%
7 | CNC(=O)N(C)C(=O)Nc1ccccc1C(=O)O [compound 10, 1,3-Dimethyl-5-(2-carboxyphenyl)biuret] | 12.5 | 4/4 |  | 1/4 |  | 
8 | CNC(=O)N(C)C(=O)NCc1ccccc1 [compound 12] |  |  | 50 | 4/4 |  | inhibition in vivo at 100 mg/kg ([1]; 100 mg/kg oral, mice): 100%; inhibition in vivo at 100 mg/kg ([3]; po, 3 h): 47%; Acute toxicity, death number of mice/number of mice tested (ddy strain of male mice; 500 mg/kg oral): 0/4
9 | CNC(=O)N(C)C(=O)NCc1ccccn1 [compound 13, 1,3-Dimethyl-5-(2-pyridylmethyl)biuret] |  | 2/4 | 37.5 | 0/4 |  | inhibition in vivo at 100 mg/kg ([1]; 100 mg/kg oral, mice): 25%
10 | CCNC(=O)NC(=O)Nc1ccccc1Cl [compound 24, 1-Ethyl-5-(2-chlorophenyl)biuret] |  | 0/4 |  |  | 37.5 | inhibition in vivo at 200 mg/kg ([1]; 200 mg/kg oral, mice): 25%; inhibition in vivo at 200 mg/kg [3, 5]: 77%
11 | CCNC(=O)NC(=O)Nc1cccc(Cl)c1 [compound 25, 1-Ethyl-5-(3-chlorophenyl)biuret] |  | 0/4 |  |  | 37.5 | inhibition in vivo at 200 mg/kg ([1]; 200 mg/kg oral, mice): 25%; inhibition in vivo at 200 mg/kg [3, 5]: 86%
12 | CCNC(=O)NC(=O)Nc1ccc(Cl)cc1 [compound 26] |  | 0/4 |  |  | 25 | inhibition in vivo at 200 mg/kg ([1]; po): 12.5%; inhibition in vivo at 200 mg/kg [3, 5]: 76%
13 | CCNC(=O)NC(=O)Nc1ccc(Cl)c(Cl)c1 [compound 27, 1-Ethyl-5-(3,4-dichlorophenyl)biuret] |  | 1/4 |  | 0/4 | 12.5 | inhibition in vivo at 200 mg/kg ([1]; po): 12.5%; inhibition in vivo at 200 mg/kg ([3]; po, 3 h): 44%
14 | CCNC(=O)NC(=O)NCc1ccccc1 [compound 29, 1-Ethyl-5-benzylbiuret] | 12.5 | 1/4 | 25 | 0/4 |  | inhibition in vivo at 100 mg/kg [3, 4]: 31%
15 | CCNC(=O)NC(=O)Nc1ccccn1 [compound 30, 1-Ethyl-5-(2-pyridyl)biuret] |  | 3/4 | 37.5 | 0/4 |  | inhibition in vivo at 100 mg/kg ([3]; po, 3 h): 30%
16 | CCCCNC(=O)NC(=O)Nc1ccccc1 [compound 46] |  | 0/4 |  |  | 25 | inhibition in vivo at 200 mg/kg [3, 5]: 84%
17 | CN(C(=O)NCC(O)CO)C(=O)Nc1ccccc1 (stereo not drawn) [compound 58, 1-(2,3-Dihydroxypropyl)-3-methyl-5-phenylbiuret] | 37.5 | 0/4 | 37.5 |  |  | 
18 | COCCNC(=O)N(C)C(=O)Nc1ccccc1 [compound 59, 1-(2-Methoxyethyl)-3-methyl-5-phenylbiuret] |  | 4/4 | 25 | 1/4 |  | inhibition in vivo at 100 mg/kg ([1]; 100 mg/kg oral, mice): 25%
19 | CN(C(=O)NCC(=O)O)C(=O)Nc1ccccc1 [compound 60, 1-Carboxymethyl-3-methyl-5-phenylbiuret] |  | 0/4 | 25 |  |  | inhibition in vivo at 100 mg/kg ([1]; 100 mg/kg oral, mice): 25%
20 | CC(=O)NC(=O)N(C)C(=O)Nc1ccccc1 [compound 61, 1-Acetyl-3-methyl-5-phenylbiuret] | 50 | 0/4 | 12.5 |  |  | 
21 | CN(C(=O)NO)C(=O)Nc1ccccc1 [compound 62, 1-Hydroxy-3-methyl-5-phenylbiuret] |  | 1/4 | 25 | 0/4 |  | 
22 | CN(C(=O)Nc1ccccc1)C(=O)Nc1ccccc1 [compound 64] | 37.5 | 0/4 |  |  | 12.5 | 
